“Also recorded” adds a separate entry of the source.

The subject of data set [1] is alphavirus M1. Description: Mevalonate pathway inhibiting compounds acting on tumor cells with M1 virus: virus replication. The data set is classed as cell-based.
Data set [2] relates to HCT-116 cells. In words: MTT cell viability, Tipifarnib and M1 virus. The data set is classed as cell-based, human. The settings on record: Tipifarnib 50 nM, M1 virus MOI=1, 48 h. The source says: (§1) Each group of experiments was repeated 3 times.
In data set [3] the test system is SW1990 cells. In words: MTT cell viability, Tipifarnib and M1 virus. The data set is classed as cell-based, human. To be noted: Tipifarnib 50 nM, M1 virus MOI=1, 48 h.
Text: as §1

For data set [4], the system named is HCT-116 or SW 1990 transplanted tumors. In words: Growth of subcutaneous transplanted tumors in nude mice. The data set is classed as in vivo, BALB/c nude mice. To be noted: Tipifarnib 500 μg/kg/d i.p.; M1 2×10^9 PFU/kg/d tail vein; 6 consecutive injections; vs control group; both tumor models. As to the method: This experiment used a randomized, single-blind design. 5×10^6 HCT-116 or SW 1990 cells were injected subcutaneously into the dorsal flank of the 4 week old BALB/c nude mouse.
When the tumor size reached 50 mm3, the mice were divided into […], including untreated control group, Tipifarnib alone group (500 μg/kg/d by intraperitoneal injection), M1 infection alone group (2×10^9 PFU/kg/d by tail vein injection of M1 virus) and Tipifarnib/M1 combined group (same dose of Tipifarnib and M1 virus), and treated with 6 consecutive injections. The length, width and weight of the tumor were measured every two days, and the volume of the tumor was measured according to the formula (length×width^2)/2. One way ANOVA was performed after measuring tumor volume, ***indicates p<0.001.

The subject of data set [5] is HCT-116 cells. In words: Cell morphology after fluvastatin and M1 virus treatment. The settings on record: fluvastatin 2 μM, M1 virus MOI=1, 48 hours. The data set is classed as cell-based, human. The procedure: (§2) a) Cell culture: human intestinal cell carcinoma strain HCT-116 was grown in a DMEM complete medium containing 10% FBS, 100 U/ml penicillin and 0.1 mg/ml streptomycin; all cell strains were cultured in a constant temperature closed incubator at 5% CO2, 37° C. (95% RH) and observed by the inverted microscope. Cells were passaged once for approximately 2-3 days and the cells in logarithmic growth phase were used for formal experiments.
c) Cells were inoculated into a 24-well plate at 30,000 cells/well; after the cells were treated with fluvastatin 2 (μM), they were infected with M1 virus (MOI=1); and the changes of cell morphology were observed under the inverted phase contrast microscope after 48 hours.

Data set [6] has as its system M1 viral proteins (structural protein E1 and non-structural protein NS3). Description: Immunoblot of M1 viral proteins after statin treatment of M1-infected HCT-116 cells. The data set is classed as cell-based, M1 virus. To be noted: concentration not given. As to the method: as §2
Cells were infected with M1 virus (MOI=1), treated with M1 virus (MOI=1) combined with fluvastatin or atorvastatin (1 and 10 μM), and cellular proteins were harvested after 24 hours and immunoblotted.

In data set [7] the test system is HCT-116, Capan-1 and SW 1990 cells. In words: Cell morphology under inverted phase contrast microscope after siRNA interference of HMGCR and M1 virus infection. The data set is classed as cell-based, human. The settings on record: HCT-116, Capan-1, SW 1990; siRNA 25 nM; M1 virus 1 MOI; 48 h after infection. As to the method:
(§3) The cells were inoculated into a 35 mm culture dish, cultured until the confluence degree of the cells reaches 60% and subjected to the following interference treatment: firstly, a Lipofectamine RNAiMAX solution was prepared with Opti-MEM by diluting according to 2 μL: 198 μL per culture dish and uniformly mixing; secondly, an siRNA solution was prepared with Opti-MEM by diluting according to 1.8 μL: 198 μL per culture dish, wherein the final concentration of siRNA was 25 nM, and mixing gently; finally, the diluted Lipofectamine RNAiMAX and siRNA were mixed, and stood for 15 minutes at room temperature; the mixed solution was added into a culture dish containing 1.5 mL of serum-free culture medium; and the medium was changed to a complete medium after 24 hours, and infected with M1 virus (1MOI). The changes in cell morphology were observed after 48 h under the inverted phase contrast microscope.

Data set [8] concerns M1 virus structural protein E1 and nonstructural protein NS3. Description: Immunoblot of M1 viral proteins after siRNA interference of mevalonate pathway genes. The data set is classed as cell-based. The settings on record: HCT-116; siRNA HMGCR, SQLE, FNTB, PGGT1B, RABGGTB 25, 25, 4, 20, 20 nM; M1 1 MOI; 24 hours. The procedure: as §3, with “interfering HMGCR, SQLE, FNTB, PGGT 1B and RABGGTB (specifically see FIG. 9 and the description of the Figures) were 25, 25, 4, 20 and 20 nM respectively,” for “was 25 nM,”, “Cell lysates” for “The changes in cell morphology”, “collected” for “observed”, “24 hours and immunoblotted.” for “48 h under the inverted phase contrast microscope.”

For `COC(=O)[C@H](CCSC)NC(=O)c1ccc(NC[C@@H](N)CS)cc1-c1ccccc1.O=C(O)C(F)(F)F` [FTI277], the “replication of the alphavirus M1” value in data set [1] is given as “promote replication of the alphavirus Ml”.
On to `Cn1cncc1[C@@](N)(c1ccc(Cl)cc1)c1ccc2c(c1)c(-c1cccc(Cl)c1)cc(=O)n2C` [Tipifarnib], for which the “tumor cell survival rate” value in data set [2] is listed as 80%; in data set [3] it was 90%. In addition, the tumor volume entry in data set [4] is recorded as “only a slight reduction in tumor volume”. The “replication of the alphavirus M1” value in data set [1] is reported as “promote replication of the alphavirus Ml”.
As for `CC(C)n1c(/C=C/[C@@H](O)C[C@@H](O)CC(=O)[O-])c(-c2ccc(F)cc2)c2ccccc21.[Na+]` [fluvastatin], the “changes of cell morphology” value in data set [5] was “induced lesions in a small number of cells”. In data set [6], the “expression of M1 virus protein” value was “significantly increase the protein expression of M1 virus; also recorded: promote the expression of M1 virus protein”. In data set [1], the “replication of the alphavirus M1” value is on record as “promote replication of the alphavirus Ml”.
In the case of “AACCCAAUGCCCAUGUUCCdTdT (as printed in the source, key not given here) [siRNA targeting HMGCR, siRNA interfering the HMG-CoA reductase gene (HMGCR)]”, in data set [7], the “changes in cell morphology” value is “did not affect the morphology of tumor cells”. Also, in data set [8], the “expression of structural protein E1 and nonstructural protein NS3 of the virus” value is on record as “increased significantly; also recorded: significantly increase the protein expression of M1 virus”.
Turning to atorvastatin, the “expression of M1 virus protein” value in data set [6] was “significantly increase the protein expression of M1 virus; also recorded: promote the expression of M1 virus protein”. The “replication of the alphavirus M1” value in data set [1] was “promote replication of the alphavirus Ml”.

These data come from US20200405793A1, “USE OF […] PATHWAY INHIBITOR AND […] PREPARING ANTI-TUMOR DRUG” (GUANGZHOU VIROTECH PHARMACEUTICAL CO., LTD., priority 2017, published 2020).
